What was measured:
[1] = system: syngeneic C57BL/6N mice; experiment: Teratoma formation of induced mouse pluripotent stem cells transplanted subcutaneously; type: in vivo; conditions: cells induced by three genes + MS-275; 2×10^7 cells/mouse subcutaneously; 34 days later; three germ layers observed
Method: From the extracted teratoma, slices were prepared, and differentiation potential into three germ layers was analyzed by immunological and histological staining (HE stain, alcian blue stain). As a result, GFAP-positive cells (the nervous system) and keratin producing cells (skin cells) as the ectodermic system, smooth muscle actin-positive cells (smooth muscle cells), bone tissues and cartilage tissues as the mesodermic system, and intestinal tract tissues (endodermal epithelium positive for MUC-1) as the endodermic system were observed.

[2] = system: mouse Nanog; experiment: Nanog expression of colonies by quantitative PCR; type: cell-based; conditions: three genes + MS-275 0.1 or 1.0 μM; compared with alkaline phosphatase-negative colonies; FIG. 3
Method: The expression of target gene of each colony including an alkaline phosphatase-positive colonies was determined using quantitative PCR in the following manner. Colonies developed by the induction of pluripotent stem cells were harvested, and RNA was extracted using the Recoverall total nucleic acid isolation kit for FFPE (manufactured by Ambion). After synthesizing cDNA from the extracted RNA, the target gene was amplified using the Taqman Preamp mastermix (manufactured by Applied Biosystems). As the primers for quantitative PCR, the Taqman gene exprESsion assay (manufactured by Applied Biosystems) was used. […] Human Hprt: Hs99999909_m1, human Nanog: Hs02387400_g1, human Tert: Hs00162669_m1, Mouse Hprt: Mm01545399_m1, mouse Nanog: Ma02019550_s1. Then, the amount expressed of the Nanog gene was confirmed by quantitative PCR, and the expression of mouse Nanog of colonies of pluripotent stem cells having alkaline phosphatase activity was confirmed (FIG. 3).

[3] = system: cells derived from mouse bone marrow; experiment: Induction of mouse pluripotent stem cells by three gene introduction and MS-275 treatment (colony formation, alkaline phosphatase staining); type: cell-based
Method: Staining for confirming alkaline phosphatase activity which is a characteristic of pluripotent stem cells was conducted in the following manner. After removing the culture medium, a 10% formalin neutral buffer solution was added to wells, and cells were fixed at room temperature for 5 minutes. After washing with a phosphate buffer etc., a chromogenic substrate of alkaline phosphatase, 1 step NBT/BCIP (manufactured by Pierce) was added and reacted at room temperature for 20 to 30 minutes. Cells having alkaline phosphatase activity were all stained blue violet.
The primary culture cells derived from mouse bone marrow containing undifferentiated stem cells that had been stored frozen after preparing in a manner similar to Example 11 were plated at a concentration of 5×10^3 cells/cm^2 on a 24-well plastic plate (manufactured by Becton Dickinson) having the bottom which had been gelatin-coated with a 0.1% gelatin/phosphate buffer, and 2 ml each of the MAPC medium was added.
Eight hours later, the medium was removed, 2 ml each of the three gene (human Oct3/4, Sox2 and Klf4) retrovirus vector solution prepared as in Example 1 were added, and after further adding MS-275, a histone deacetylase inhibitor, at a final concentration of 1 or 0.1 μM, they were cultured at 37° C. for 14 hours. […]

## Nc1ccccc1NC(=O)c1ccc(CNC(=O)OCc2cccnc2)cc1 [MS-275, N-(2-aminophenyl)-4-[N-(pyridine-3-yl-methoxycarbonyl)aminomethyl]benzamide]
[1]
  teratoma formation: teratoma that formed was extracted
[2]
  expression of Nanog in alkaline phosphatase-positive colonies: significantly higher than the alkaline phosphatase-negative colonies
[3]; three genes (human Oct3/4, Sox2, Klf4) retrovirus + MS-275 1 or 0.1 μM, fifteen days after
  formation of pluripotent stem cell colonies: formed colonies composed of mouse ES cell-like small cells
[3]; three genes + MS-275 1 or 0.1 μM
  alkaline phosphatase activity staining of colonies: stained blue violet by alkaline phosphatase activity

Source: patent publication US9714433B2, “Human pluripotent stem cells induced from undifferentiated stem cells derived from a human postnatal tissue” (Kyoto University, priority 2007, dated 2017)
